≈ marks a conversion by molar mass, not a printed value. Where “and” joins values, the source holds several entries; their conditions need not be identical. Identical values can stand only once. Like-named read-outs stand apart in the source and are kept apart here.
What was measured:
in vitro = assay type: cell-based; conditions: African green monkey
M. tuberculosis H37Rv [1] = test: M. tuberculosis MIC assay; conditions: for MIC H37Rv: 90% inhibition of bacterial growth, Alamar blue
[2] = Mouse liver microsomal stability; assay type: in vitro ADME; conditions: pH 7.4
physchem = assay type: physicochemical; conditions: pH 7.4, aqueous buffer, kinetic from dmso stock
[3] = assay type: in vitro ADME; conditions: mouse, 5 µM
M. tuberculosis [4] = test: M. tuberculosis MBC assay; assay type: cell-based; conditions: Mycobacterium tuberculosis
[5] = test system: M. tuberculosis mc^26206 within J774.1 cells; test: microbe, parasite or virus in culture; assay type: cell-based; conditions: Mycobacterium tuberculosis, J774.1, read-out: IC50, intracellular growth of M. tuberculosis mc^26206 within J774.1 cells
[6] = test system: CYP1A2, CYP2C9, CYP2C19, CYP2D6, CYP3A4 (one value for the profile of isoforms; except 2C19 for compound 10); test: in vitro; assay type: in vitro ADME; conditions: human, pH 7.4
M. tuberculosis H37Rv [7] = test: Mouse model of acute M. tuberculosis infection; assay type: in vivo, BALB/c mice; conditions: for bacterial load in the spleen: po qd
M. tuberculosis [8] = test: M. tuberculosis killing kinetics; assay type: cell-based, Mycobacterium tuberculosis; conditions: for cidality in vitro: H37Rv strain; for killing in combination with INH: each at 10× MIC
[9] = assay type: in vitro ADME; conditions: human, 5 µM
cytochrome P450 2C19 = cytochrome P450 2C19 (Homo sapiens, UniProt P33261); test: Human cytochrome P450 2C19 inhibition; assay type: in vitro ADME
cytochrome P450 2C19, sequence (P33261 whole entry): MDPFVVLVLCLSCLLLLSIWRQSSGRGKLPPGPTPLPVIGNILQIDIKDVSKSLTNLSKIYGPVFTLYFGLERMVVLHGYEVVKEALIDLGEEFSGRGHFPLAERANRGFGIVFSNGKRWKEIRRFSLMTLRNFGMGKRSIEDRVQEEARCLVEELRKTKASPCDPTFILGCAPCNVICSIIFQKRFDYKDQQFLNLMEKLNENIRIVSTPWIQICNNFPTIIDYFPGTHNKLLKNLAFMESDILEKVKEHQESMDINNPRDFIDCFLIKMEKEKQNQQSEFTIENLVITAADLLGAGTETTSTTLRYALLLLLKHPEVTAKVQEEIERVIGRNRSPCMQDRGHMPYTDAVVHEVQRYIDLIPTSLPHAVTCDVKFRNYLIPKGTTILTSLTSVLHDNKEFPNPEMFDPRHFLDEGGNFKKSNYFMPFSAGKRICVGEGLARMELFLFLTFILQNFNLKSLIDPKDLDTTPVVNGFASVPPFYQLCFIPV

[10] = Mouse pharmacokinetic profiling; assay type: in vivo, CD-1 mice; conditions: female, CD-1, mouse; for AUC(0-t): po
M. tuberculosis [11] = test: Mouse model of chronic M. tuberculosis infection; assay type: in vivo, BALB/c mice; conditions: for reduction in CFUs, controls: 10 or 20 mg/kg qd po
Klebsiella pneumoniae = test: MIC versus Klebsiella pneumoniae; assay type: cell-based
[12] = Dog liver microsomal stability; assay type: in vitro ADME; conditions: pH 7.4
KasA = KasA (Mycobacterium tuberculosis, UniProt P9WQD9); test: Microscale thermophoresis binding assay
KasA, sequence (P9WQD9 whole entry): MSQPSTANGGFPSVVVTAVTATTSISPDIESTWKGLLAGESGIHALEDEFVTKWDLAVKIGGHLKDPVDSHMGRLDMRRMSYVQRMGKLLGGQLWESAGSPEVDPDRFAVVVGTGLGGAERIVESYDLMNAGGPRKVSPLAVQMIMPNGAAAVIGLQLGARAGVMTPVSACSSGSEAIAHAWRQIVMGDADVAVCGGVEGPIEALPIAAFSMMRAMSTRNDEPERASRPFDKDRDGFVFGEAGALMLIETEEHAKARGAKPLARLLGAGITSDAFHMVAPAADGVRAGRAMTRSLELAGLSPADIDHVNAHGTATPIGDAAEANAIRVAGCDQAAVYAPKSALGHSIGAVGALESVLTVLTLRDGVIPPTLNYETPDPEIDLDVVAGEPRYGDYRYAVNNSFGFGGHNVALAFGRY

[13] = test system: mycolic acid biosynthesis within M. tuberculosis H37Rv; test: Mycolic acid biosynthesis analysis; assay type: cell-based, Mycobacterium tuberculosis
Pseudomonas aeruginosa = test: MIC versus Pseudomonas aeruginosa; assay type: cell-based
hERG = hERG (Homo sapiens, UniProt Q12809); test: hERG inhibition; assay type: biochemical
hERG, sequence (Q12809 whole entry): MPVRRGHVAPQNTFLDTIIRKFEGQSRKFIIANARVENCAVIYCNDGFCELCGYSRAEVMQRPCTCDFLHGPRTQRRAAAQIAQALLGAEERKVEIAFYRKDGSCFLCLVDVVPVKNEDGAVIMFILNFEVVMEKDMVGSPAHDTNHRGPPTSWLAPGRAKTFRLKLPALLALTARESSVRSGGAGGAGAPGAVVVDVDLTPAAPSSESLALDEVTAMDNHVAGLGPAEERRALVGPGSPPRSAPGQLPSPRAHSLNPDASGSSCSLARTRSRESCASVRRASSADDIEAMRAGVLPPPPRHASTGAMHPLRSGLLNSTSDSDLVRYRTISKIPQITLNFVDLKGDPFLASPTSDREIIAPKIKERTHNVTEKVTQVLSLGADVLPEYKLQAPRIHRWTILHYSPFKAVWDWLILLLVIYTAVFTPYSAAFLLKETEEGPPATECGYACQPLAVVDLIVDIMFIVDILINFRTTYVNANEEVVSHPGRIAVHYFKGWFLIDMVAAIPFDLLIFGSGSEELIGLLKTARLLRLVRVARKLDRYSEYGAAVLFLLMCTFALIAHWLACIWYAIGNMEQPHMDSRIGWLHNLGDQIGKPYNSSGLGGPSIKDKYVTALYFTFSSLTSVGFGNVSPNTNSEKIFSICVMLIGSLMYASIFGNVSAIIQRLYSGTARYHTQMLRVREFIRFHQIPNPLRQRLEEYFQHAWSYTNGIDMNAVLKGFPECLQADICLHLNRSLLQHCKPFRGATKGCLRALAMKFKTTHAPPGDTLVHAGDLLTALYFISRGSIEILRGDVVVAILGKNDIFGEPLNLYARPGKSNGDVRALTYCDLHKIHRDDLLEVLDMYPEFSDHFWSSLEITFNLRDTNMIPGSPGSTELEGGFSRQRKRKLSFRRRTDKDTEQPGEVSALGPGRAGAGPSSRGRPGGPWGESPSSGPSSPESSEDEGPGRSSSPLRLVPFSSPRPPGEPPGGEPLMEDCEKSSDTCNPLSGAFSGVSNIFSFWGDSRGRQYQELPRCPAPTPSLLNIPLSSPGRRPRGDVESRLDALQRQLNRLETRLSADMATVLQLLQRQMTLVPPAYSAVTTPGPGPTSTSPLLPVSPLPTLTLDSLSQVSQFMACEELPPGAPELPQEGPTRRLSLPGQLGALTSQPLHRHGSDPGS

Enterobacter cloacae = test: MIC versus Enterobacter cloacae; assay type: cell-based
Staphylococcus aureus = test: MIC versus Staphylococcus aureus; assay type: cell-based
Enterococcus faecium = test: MIC versus Enterococcus faecium; assay type: cell-based

Compound	CC50 (in vitro)	MIC H37Rv (M. tuberculosis H37Rv [1])	solubility kinetic at 4 h (physchem)	IC50 [5]	Kp at 5 h ([10]; in vivo)	t > MIC ([10]; in vivo)	AUC(0-t) ([10]; in vivo)	further results
CCCCS(=O)(=O)Nc1ccc2[nH]cc(C)c2c1 [Compound 4, N-(3-methyl-1H-indol-5-yl)butane-1-sulfonamide]	> 190 µM	1.6 µM (≈ 0.426 µg/mL)	–	–	–	–	–	–
CCCCS(=O)(=O)Nc1ccc2[nH]c(C(=O)OCC)c(C)c2c1 [Compound 5, ethyl 5-(butylsulfonamido)-3-methyl-1H-indole-2-carboxylate]	> 150 µM	0.20 µM (≈ 0.0677 µg/mL)	0.895 µM (≈ 0.303 µg/mL)	–	–	–	–	half-life ([2]; microsomes): < 0.5 min
CCCCS(=O)(=O)Nc1ccc2[nH]c(C(N)=O)c(C)c2c1 [Compound 8, 5-(butylsulfonamido)-3-methyl-1H-indole-2-carboxamide]	> 160 µM	3.1 µM (≈ 0.959 µg/mL)	45.5 µM (≈ 14.1 µg/mL)	–	–	–	–	half-life ([2]; microsomes): 6.16 min
CCCCS(=O)(=O)Nc1ccc2[nH]c(C#N)c(C)c2c1 [Compound 9, N-(2-cyano-3-methyl-1H-indol-5-yl)butane-1-sulfonamide]	170 µM	0.78 µM (≈ 0.227 µg/mL)	–	0.19 µM	–	–	–	MIC (M. tuberculosis H37Rv [1]; H37Rv): 780 µM (≈ 227 µg/mL); plasma stability at 5 h [3]: ≥ 80%; MBC (M. tuberculosis [4]): 1.4 to 2.7 µM (≈ 0.408 to 0.787 µg/mL); IC50 at 20 min [6]: > 1 µM; increase of CFU in the lungs versus start of treatment (M. tuberculosis H37Rv [7]; 100 mg/kg po qd): about 1 log10 CFU; bacterial load in the spleen (M. tuberculosis H37Rv [7]): did not reduce the bacterial load in the spleen; reduction in CFUs, killing kinetics (M. tuberculosis [8]; 103 MIC of compound, over 7 days, followed by re-growth): > 2 log10; cidality in vitro (M. tuberculosis [8]): in vitro bactericidal; half-life ([2]; mouse liver microsomes): 6.51 min; plasma stability at 5 h [9]: ≥ 80%
CCCCCS(=O)(=O)Nc1ccc2[nH]c(C#N)c(C)c2c1 [Compound 10, N-(2-cyano-3-methyl-1H-indol-5-yl)pentane-1-sulfonamide]	160 µM	0.2 µM and 0.20 µM	–	0.078 µM	–	–	–	plasma stability at 5 h [3]: ≥ 80%; IC50 (cytochrome P450 2C19): 0.542 µM; MBC (M. tuberculosis [4]): 0.65 to 1.3 µM (≈ 0.199 to 0.397 µg/mL); IC50 at 20 min [6]: > 1 µM; bacterial growth in the lungs (M. tuberculosis H37Rv [7]; 100 mg/kg): permissive of bacterial growth in the lungs; activity in the lungs (M. tuberculosis H37Rv [7]; 200-mg/kg dosing regimen): bacteriostatic activity in the lungs; bacterial load in the spleen (M. tuberculosis H37Rv [7]): did not reduce the bacterial load in the spleen; cidality in vitro (M. tuberculosis [8]): in vitro bactericidal; killing in combination with INH (M. tuberculosis [8]): culture sterilization; half-life ([2]; mouse liver microsomes): 4.08 min; plasma stability at 5 h [9]: ≥ 80%
CCCCS(=O)(=O)Nc1ccc2[nH]c(CN)c(C)c2c1 [Compound 11, N-(2-(aminomethyl)-3-methyl-1H-indol-5-yl)butane-1-sulfonamide]	170 µM	100 µM (≈ 29.5 µg/mL)	–	–	–	–	–	–
CCCCCS(=O)(=O)Nc1ccc2[nH]nc(C)c2c1 [Compound 13, N-(3-methyl-1H-indazol-5-yl)pentane-1-sulfonamide]	89 µM	0.12 µM (≈ 0.0338 µg/mL)	476 µM (≈ 134 µg/mL)	–	1.3	5 h	13900 ng·h/mL	half-life ([2]; microsomes): 3.26 min
CCCCS(=O)(=O)Nc1ccc2[nH]nc(Cl)c2c1 [Compound 14, N-(3-chloro-1H-indazol-5-yl)butane-1-sulfonamide]	22 µM	0.39 µM (≈ 0.112 µg/mL)	443 µM (≈ 127 µg/mL)	–	0.6	5 h	51700 ng·h/mL	half-life ([2]; microsomes): 32.1 min
Cc1n[nH]c2ccc(NS(=O)(=O)CCCC(F)(F)F)cc12 [Compound 15, 4,4,4-trifluoro-N-(3-methyl-1H-indazol-5-yl)butane-1-sulfonamide]	> 160 µM	0.25 µM (≈ 0.0803 µg/mL)	–	–	0.95	5 h	28400 ng·h/mL	–
O=S(=O)(CCCC(F)(F)F)Nc1ccc2[nH]nc(Cl)c2c1 [Compound 16, N-(3-chloro-1H-indazol-5-yl)-4,4,4-trifluorobutane-1-sulfonamide]	> 150 µM	0.20 µM (≈ 0.0683 µg/mL)	–	–	1.2	5 h	22000 ng·h/mL	–
CCCCCS(=O)(=O)Nc1ccc2[nH]nc(Cl)c2c1 [Compound 17, N-(3-chloro-1H-indazol-5-yl)pentane-1-sulfonamide]	170 µM	0.39 µM (≈ 0.118 µg/mL)	–	–	1.7	5 h	34800 ng·h/mL	–
O=S(=O)(CCCCF)Nc1ccc2[nH]nc(Cl)c2c1 [Compound 18, N-(3-chloro-1H-indazol-5-yl)-4-fluorobutane-1-sulfonamide]	160 µM	0.20 µM (≈ 0.0612 µg/mL)	–	–	–	–	–	–
NNC(=O)c1ccncc1 [INH, isoniazid, reference compound]	–	–	–	0.5 µM	–	–	–	reduction in CFU, killing kinetics (M. tuberculosis [8]; 103 MIC, over 4 days, with rapid re-growth): > 3 log10; reduction in CFUs, controls (M. tuberculosis [11]; 4 weeks): ~ 2 log10
Cc1n[nH]c2ccc(NS(=O)(=O)CCCCF)cc12 [JSF-3285, 4-fluoro-N-(3-methyl-1H-indazol-5-yl)butane-1-sulfonamide]	170 µM	0.20 µM (≈ 0.0571 µg/mL)	175 µM (≈ 49.9 µg/mL)	0.046 µM	–	5 h	59300 ng·h/mL	increase in mouse plasma exposure (AUC0–5h) over DG167 ([10]; in vivo): 30 fold; Kp at 5 h ([10]; lung and plasma, oral): 0.75; MIC (Klebsiella pneumoniae): > 50 µg/mL; half-life ([12]; microsomes): 48.2 min; intrinsic clearance (Clint) in dog liver microsomes [12]: 124 µL/min/mg; reduction in lung bacterial burden (CFUs) versus start of treatment (M. tuberculosis H37Rv [7]; 100 or 200 mg/kg qd po, 4 weeks of treatment): ~ 2 log10; Kd (KasA): 0.0707 ± 0.0235 µM; mycolic acid biosynthesis [13]: inhibited mycolic acid biosynthesis; MIC (Pseudomonas aeruginosa): > 50 µg/mL; cidality in vitro (M. tuberculosis [8]): cidal to the H37Rv strain; killing in combination with INH (M. tuberculosis [8]): culture sterilization; half-life ([2]; mouse liver microsomes): 28.4 min; IC50 (hERG): > 50 µM; MIC (Enterobacter cloacae): > 50 µg/mL; MIC (Staphylococcus aureus): > 50 µg/mL; MIC (Enterococcus faecium): > 50 µg/mL; improvement of efficacy of INH or RIF regimen on addition (M. tuberculosis [11]; 200 mg/kg added to 10 mg/kg INH or RIF): ~ 1 log10; additional reduction of bacterial burden compared to INH- and RIF-only treatment (M. tuberculosis [11]; 200 mg/kg alone): ~ 1 log10 CFUs; reduction of bacterial burden in the mouse lungs versus start of treatment (M. tuberculosis [11]; 200 mg/kg qd po alone or with 10 mg/kg INH or RIF, 4 weeks): more than 2 log10 CFUs; reduction in CFUs in infected lungs (M. tuberculosis [11]; 200–5 mg/kg qd and 20 mg/kg qd or bid, 4 weeks of treatment): 1.5–2.0 log10
CO[C@H]1/C=C/O[C@@]2(C)Oc3c(C)c(O)c4c(O)c(c(/C=N/N5CCN(C)CC5)c(O)c4c3C2=O)NC(=O)/C(C)=C\C=C\[C@H](C)[C@H](O)[C@@H](C)[C@@H](O)[C@@H](C)[C@H](OC(C)=O)[C@@H]1C [RIF, rifampicin, reference compound]	–	–	–	0.3 µM	–	–	–	reduction in CFUs, controls (M. tuberculosis [11]; 4 weeks): ~ 2 log10
